Reference: PubChem BioAssay (NCI)
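Tested at 5 concentrations; 48 h exposure; 96-well plates; endpoints linearly interpolated, else capped at highest concentration. At the GI50, growth is halved. TGI is the concentration that stops growth completely.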

Key:
Assay in all cases: NCI-60 cell line screen, 48 h; in the data active means GI50 below about 0.43 µM; inactive means the rest
[1] = system: A498 renal
[2] = system: HCC-2998 colon
[3] = system: HCT-15 colon
[4] = system: HT29 colon
[5] = system: IGROV1 ovarian
[6] = system: MOLT-4 leukemia
[7] = system: OVCAR-8 ovarian
[8] = system: SK-MEL-28 melanoma
[9] = system: SNB-75 CNS
[10] = system: TK-10 renal

CC(C)(C)OC(=O)CN1CCNCCN(CC(=O)OC(C)(C)C)CCNCC1
> 100 µM: TGI [1] | TGI [2] | TGI [3] | TGI [4] | TGI [5] | TGI [6] | TGI [7] | TGI [8] | TGI [9] | TGI [10]

COc1ccc(N=NC(=O)NC(CC(C)C)C(N)=O)cc1 (stereo not given)
> 100 µM: TGI [4] | TGI [5] | TGI [6] | TGI [7] | TGI [8] | TGI [9]
> 31.6 µM: TGI [1] | TGI [2] | TGI [3] | TGI [10]

Cn1cc(-c2ccc3cc(-c4ccc(CC(=O)Nc5cc(C(C)(C)C)on5)cc4)cnc3c2)cn1
5.25 µM: TGI [8]
3.52 µM: TGI [5]
3.03 µM: TGI [9]
inactive: GI50 [2] 2.89 µM | GI50 [3] 0.466 µM | GI50 [4] 2.26 µM | GI50 [6] 3.01 µM | GI50 [7] 2.16 µM | GI50 [8] 1.95 µM | GI50 [9] 1.11 µM | GI50 [10] 1.63 µM
> 100 µM: TGI [4] | TGI [6] | TGI [7]
4.87 µM: TGI [3]
10.4 µM: TGI [10]
21 µM: TGI [2]
2.26 µM: TGI [1]
active: GI50 [1] 0.269 µM | GI50 [5] 0.356 µM

COc1ccc2c3c([nH]c2c1)CCN(CCCC(=O)c1ccc(F)cc1)C3
32.7 µM: TGI [5]
17.7 µM: TGI [2]
29.1 µM: TGI [7] | TGI [10]
24.8 µM: TGI [9]
36.7 µM: TGI [3]
18.3 µM: TGI [4]
29.3 µM: TGI [8]
36.2 µM: TGI [6]
29.7 µM: TGI [1]

Cc1oc2c(c1C)S(=O)(=O)C(C#N)=C(N(C)C)N2
> 100 µM: TGI [1] | TGI [2] | TGI [3] | TGI [4] | TGI [5] | TGI [6] | TGI [7] | TGI [8] | TGI [9] | TGI [10]

COc1ccc(C2C(C#N)=C(S)N(C3OC(COC(C)=O)C(OC(C)=O)C(OC(C)=O)C3OC(C)=O)C(c3ccccc3)=C2C(C)=O)cc1 (stereo not given)
> 100 µM: TGI [1] | TGI [2] | TGI [3] | TGI [4] | TGI [5] | TGI [6] | TGI [7] | TGI [8] | TGI [9] | TGI [10]

Cn1ncc2c(Cl)ncnc21
> 100 µM: TGI [1] | TGI [2] | TGI [3] | TGI [4] | TGI [5] | TGI [6] | TGI [7] | TGI [8] | TGI [9] | TGI [10]

C[C@@H]1C(=O)C[C@H]2C(C)(C)CCC[C@]2(C)[C@@]1(O)CCc1ccoc1
> 100 µM: TGI [1] | TGI [2] | TGI [3] | TGI [4] | TGI [5] | TGI [6] | TGI [7] | TGI [8] | TGI [9] | TGI [10]

Cc1csc2c1-n1cccc1C2=O
> 100 µM: TGI [1] | TGI [2] | TGI [3] | TGI [4] | TGI [5] | TGI [6] | TGI [7] | TGI [8] | TGI [9] | TGI [10]

Cc1sc2c(c1C)/C(=N\O)c1cccn1-2
75.9 µM: TGI [1]
41.1 µM: TGI [9]
> 100 µM: TGI [2] | TGI [3] | TGI [4] | TGI [5] | TGI [6] | TGI [7] | TGI [8] | TGI [10]

O=C(O)c1ccc(C2=Cc3cc(Cl)ccc3OC2)cc1
> 100 µM: TGI [1] | TGI [2] | TGI [3] | TGI [4] | TGI [5] | TGI [6] | TGI [7] | TGI [8] | TGI [9] | TGI [10]

CC(=O)Nc1ccc2[nH]c(C(=O)N3CC(CCl)c4c3cc([N+](=O)[O-])c3ccccc43)cc2c1 (stereo not given)
> 64.4 µM: TGI [9]
> 100 µM: TGI [2] | TGI [3] | TGI [4] | TGI [7] | TGI [8] | TGI [10]
> 53 µM: TGI [5]
> 67.6 µM: TGI [6]
4.06 µM: TGI [1]

CC(C)(C)c1cc(OCc2nn3c(Cc4ccccc4)nnc3s2)c(Cl)cc1OCc1nn2c(Cc3ccccc3)nnc2s1
> 100 µM: TGI [1] | TGI [2] | TGI [3] | TGI [4] | TGI [5] | TGI [6] | TGI [7] | TGI [8] | TGI [9] | TGI [10]

CCCCCCCCCCCCCCC(O)C[N+](C)(CCO)CCO (stereo not given)
22.4 µM: TGI [8]
12.1 µM: TGI [4]
2.85 µM: TGI [9]
18.8 µM: TGI [7]
22.6 µM: TGI [1]
3.51 µM: TGI [2]
22 µM: TGI [3]
4.16 µM: TGI [10]
9.13 µM: TGI [6]
3.14 µM: TGI [5]

Nc1nc(Cl)cc(NC2(CO)CCC2)n1
> 100 µM: TGI [1] | TGI [2] | TGI [3] | TGI [4] | TGI [5] | TGI [6] | TGI [7] | TGI [8] | TGI [9] | TGI [10]

Cc1cc(S(=O)(=O)Nc2nnc3cnc4ccccc4n23)c(S)cc1Cl
> 100 µM: TGI [1] | TGI [2] | TGI [3] | TGI [4] | TGI [5] | TGI [6] | TGI [7] | TGI [8] | TGI [9] | TGI [10]

NC1=Nc2cc(Cl)ccc2Sc2nc3ccccc3n21
> 100 µM: TGI [1] | TGI [2] | TGI [3] | TGI [4] | TGI [5] | TGI [6] | TGI [7] | TGI [8] | TGI [10]
> 86.4 µM: TGI [9]
